Consider two compounds from US9771559B2, “Methods and compositions for stem cell self-renewal” (Stowers Institute for Medical Research, priority 2007, dated 2017).

One data set relates to LSK Flk2^− cells. As to the kind of experiment: Ex vivo culture and expansion of sorted LSK Flk2- cells in media with PTEN and/or GSK-3β inhibitors. The settings on record: 1 μM CHIR99021, 200 nM BpV(pic); for expansion of LSK cells compared to control: 100 LSK Flk2- cells seeded, 17 and 23 days culture; for Fold expansion of LSK Flk2- cells after 28 days culture: compared to media without inhibitor. Type of data set: cell-based, wild-type (C57Bl/6) mice. On the procedure:
LSK or LSK Flk2^− cells were sorted into 96-well U-bottom tissue culture plates at 100 cells/well with 200 μl media/well. Cells were incubated at 37° C., 5% O2, 5% CO2 (balance N2) for the indicated number of days. One-half total volume of media (see Table 1, below for the base media) was carefully pipetted from the top and replaced with fresh media every other day.
One hundred LSK Flk2^− cells were sorted from wild-type (C57Bl/6) mice and cultured in (1) media, (2) media+1 μM CHIR99021 (a GSK-3(3β inhibitor, a gift from Dr. Sheng Ding), (3) media+200 nM Dipotassium Bis-peroxo(picolinato)oxovanadate (BpV(pic), a PTEN inhibitor, available from Calbiochem, Cat. No. 203705), (4) media+1 μM CHIR99021+200 nM BpV(pic), (5) media+200 nM Shikonin (also a PTEN inhibitor, available from Calbiochem, Cat. No. 565850), and (6) media+200 nM Shikonin+1 μM CHIR99021. (FIGS. 3B-C). Cells were cultured as described above. Cells were examined at 17 days of culture (FIG. 3B, original magnification 100×) and 23 days (FIG. 3C, original magnification 40×).
LSK Flk2^− cells at 28 days culture in the indicated media conditions were examined (FIG. 3D, original magnification 200×).
Fold expansion of LSK Flk2^− cells after 28 days culture in (1) media, (2) media+BpV(pic), (3) media+CHIR99021, and (4) media+CHIR99021+BpV(pic) were analyzed.
One hundred LSK Flk2^− cells are sorted from wild-type (C57Bl/6) mice and are cultured in (1) media, (2) media+an GSK-3β antibody, (3) media+an anti-PTEN antibody, and (4) media+anti-GSK-3β and anti-PTEN antibodies. Cells are cultured as described above. Cells are examined at 9 days, 17 days and 23 days of culture.
One hundred LSK Flk2^− cells are sorted from wild-type (C57Bl/6) mice and are cultured in (1) media, (2) media+GSK-3β siRNA, (3) media+PTEN siRNA, and (4) media+GSK-3β siRNA and PTEN siRNA. Cells are cultured as described above. Cells are examined at 9 days, 17 days and 23 days of culture.

The subject of data set [1] is lethally irradiated (10Gy) CD45.1^+ recipient mice. As to the kind of experiment: Transplantation of cultured LSK Flk2- cells into lethally irradiated recipients; donor repopulation in peripheral blood. Type of data set: in vivo. To be noted: 28-day cultures; 1000 re-sorted LSK Flk2- cells (CD45.2+) + 2×10^5 competitor cells per mouse; peripheral blood at 4 weeks post-transplant.
Text: Cells were harvested from the wells prior to transplantation by pipetting up and down several times before transferring to a fresh tube. Residual was then collected by adding more media and repeating. Cells were washed in DMEM (Invitrogen, Cat. No. 31053) without phenol red and added to the appropriate number of whole bone marrow rescue cells from a congenic donor (for 200,000 rescue cells+1,000 re-sorted LSK Flk2^− cells (FIG. 3F-H) or the non-adherent product of 10 days culture of 100 LSK Flk2^− cultured cells (FIG. 3I-K) per mouse as indicated). Cells were injected into lethally irradiated (10 Grays, single dose) Ptprc (CD45.1^+) recipient mice through the tail vein using an insulin syringe.
Repopulation was measured at 4 weeks post-transplant by collection of peripheral blood, red blood cell lysis, and staining of CD45.1 (recipient) compared to CD45.2 (donor) engraftment using antibodies purchased from eBiosciences (FITC conjugated CD45.2 (Cat. No. 11-0454-85) and PE-Cy5 conjugated CD45.1 (Cat. No. 15-0453-82)). Mice transplanted with rescue/competitor cells only were used as a control to determine the limits of repopulation detection. Multi-lineage reconstitution was determined by CD3, B220 (for lymphoid) and Gr1, Mac-1 (for myeloid), as described above.
Cells cultured for 28 days in (1) media, (2) media+BpV(pic), (3) media+CHIR99021 and (4) media+CHIR99021 (1 μM)+BpV(pic) (200 nM) were re-sorted for LSK Flk2^− cells. One thousand LSK Flk2^− cells (CD45.2^+) from each media condition were transplanted into lethally irradiated (10Gy) CD45.1^+ recipient mice along with 2×10^5 congenic whole bone marrow competitor cells. At 4 weeks post-transplant, peripheral blood was analyzed for donor (FIG. 3G) and multi-lineage (FIG. 3H) engraftment. […] The horizontal-dashed line represents the average ‘engraftment’ of mice transplanted with competitor cells only and, thus, the limit of detectability for true engraftment.

Data set [2] shares this test system. Description: Observation of transplant recipients for leukogenesis and health. To be noted: recipients of LSK Flk2- cells cultured with inhibitor(s); up to 16 weeks post-transplantation.
The test system is the same in data set [3]. The settings on record: mouse, in vivo.

Where two headings read alike, the source gives them in different places.

As for `Cc1c[nH]c(-c2cnc(NCCNc3ccc(C#N)cn3)nc2-c2ccc(Cl)cc2Cl)n1` [CHIR99021], in the data set on LSK Flk2^− cells, the “expansion of LSK cells compared to control” value is on record as “greater expansion” and the “Fold expansion of LSK Flk2- cells after 28 days culture” value is given as “significant expansion”. Also, the “mice showing >1% engraftment” value in data set [1] is 4/8. The “mice showing any sign of leukogenesis” value in data set [2] is given as “no mice”.

Regarding “Dipotassium Bis-peroxo(picolinato)oxovanadate [BpV(pic)]”, in the data set with LSK Flk2^− cells, the “expansion of LSK cells compared to control” value is recorded as “greater expansion” and the “Fold expansion of LSK Flk2- cells after 28 days culture” value is on record as “significant expansion”. Further, the “mice showing >1% engraftment” value in data set [1] is on record as 0/10. Further, the “mice showing any sign of leukogenesis” value in data set [3] was “no mice”.
